Experimental findings from patent publication US4879384A, “Preparation of thiocycloalkno [3,2-b] pyridines” (Ortho Pharmaceutical Corporation, priority 1988, dated 1989) are described below.

One test has as its target T1, calcium channels (Oryctolagus cuniculus, UniProt P15381).
T1 construct: from tissue; host or cells: rabbit heart membranes (female New Zealand white rabbits; 42,000 xg pellet)
Nature of the test: Inhibition of nitrendipine binding to calcium channels. It is filed as New Zealand white rabbit (heart membranes). To be noted: for IC50: Table II. The protocol: (1) Inhibition of nitrendipine binding to calcium channels.
The assay for inhibition of nitrendipine binding follows the following procedure:
Female, New Zealand white rabbits (1-2 kg) are sacrificed by cervical dislocation, and the heart is immediately removed, cleaned, and chopped into small pieces. The tissue is homogenized in 5X volume of 0.05M Hepes buffer, pH 7.4. The homogenate is centrifuged at 4000 xg for 10 minutes; the supernatant is recentrifuged at 42,000 xg for 90 minutes. The resulting membrane pellet is resuspended (0.7 ml/g weight) in 0.05M Hepes, pH 7.4 and stored at -70° C. until used. Each tube of the binding assay contains ^3 H-nitrendipine (0.05-0.50nM), buffer, membranes (0.10 ml), and test compound in a total volume of 1.0 ml. After 90 minutes at 4° C., the bound nitrendipine is separated from the unbound by filtration on Whatman GF/C fibers. After rinsing, the filters are dried and counted in a liquid scintillation counter.
Non-specific binding of ^3 H-nitrendipine (that amount bound in the presence of excess unlabelled nitrendipine) is subtracted from the total bound to obtain specifically bound radiolabeled nitrendipine. The amount of specifically bound nitrendipine in the presence of a test compound is compared to that amount bound in the absence of a compound. A percent displacement (or inhibition) can then be obtained.

The subject of a further test is Trachea Muscle. In words: Inhibition of calcium dependent smooth muscle contraction (trachea). It is filed as cell-based, dog. The note with it: Table II; concentration 0.3 μM. The method, then: The test for inhibition of calcium dependent smooth muscle contraction is determined according to the following procedure:
Trachea from dogs sacrificed by excess KCl injection are stored overnight at 4° C. in oxygenated Krebs-Henseleit buffer. Tracheal rings, one cartilage segment wide (5-10 mm), are cut starting from the bronchial end. After cutting the cartilage, the trachealis muscle tissue is suspended in oxygenated Krebs-Henseleit buffer at 37° C. in a 25 ml tissue bath. After a 60 minutes equilibration period, the tissues are challenged with 10 uM carbachol. After 5 minutes the tissues are rinsed and allowed to rest 50 minutes. The tissues are then challenged with 50 mM KCl and, after 30 minutes, the contractions are quantitated. The tissues are then rinsed and reequilibrated for 50 minutes. Test compounds are then added for 10 minutes, and the tissue is rechallenged with 50 mMKcl. After 30 minutes, the contraction is recorded and used to determine the % inhibition of control.
The percent inhibition of smooth muscle contracting is calculated from response data before and after drug treatment. [formula] A rating is assigned to the compound depending upon the percent inhibition obtained.

Like-named read-outs stand apart in the source and are kept apart here.

T1 sequence (P15381 whole entry, other chains not shown): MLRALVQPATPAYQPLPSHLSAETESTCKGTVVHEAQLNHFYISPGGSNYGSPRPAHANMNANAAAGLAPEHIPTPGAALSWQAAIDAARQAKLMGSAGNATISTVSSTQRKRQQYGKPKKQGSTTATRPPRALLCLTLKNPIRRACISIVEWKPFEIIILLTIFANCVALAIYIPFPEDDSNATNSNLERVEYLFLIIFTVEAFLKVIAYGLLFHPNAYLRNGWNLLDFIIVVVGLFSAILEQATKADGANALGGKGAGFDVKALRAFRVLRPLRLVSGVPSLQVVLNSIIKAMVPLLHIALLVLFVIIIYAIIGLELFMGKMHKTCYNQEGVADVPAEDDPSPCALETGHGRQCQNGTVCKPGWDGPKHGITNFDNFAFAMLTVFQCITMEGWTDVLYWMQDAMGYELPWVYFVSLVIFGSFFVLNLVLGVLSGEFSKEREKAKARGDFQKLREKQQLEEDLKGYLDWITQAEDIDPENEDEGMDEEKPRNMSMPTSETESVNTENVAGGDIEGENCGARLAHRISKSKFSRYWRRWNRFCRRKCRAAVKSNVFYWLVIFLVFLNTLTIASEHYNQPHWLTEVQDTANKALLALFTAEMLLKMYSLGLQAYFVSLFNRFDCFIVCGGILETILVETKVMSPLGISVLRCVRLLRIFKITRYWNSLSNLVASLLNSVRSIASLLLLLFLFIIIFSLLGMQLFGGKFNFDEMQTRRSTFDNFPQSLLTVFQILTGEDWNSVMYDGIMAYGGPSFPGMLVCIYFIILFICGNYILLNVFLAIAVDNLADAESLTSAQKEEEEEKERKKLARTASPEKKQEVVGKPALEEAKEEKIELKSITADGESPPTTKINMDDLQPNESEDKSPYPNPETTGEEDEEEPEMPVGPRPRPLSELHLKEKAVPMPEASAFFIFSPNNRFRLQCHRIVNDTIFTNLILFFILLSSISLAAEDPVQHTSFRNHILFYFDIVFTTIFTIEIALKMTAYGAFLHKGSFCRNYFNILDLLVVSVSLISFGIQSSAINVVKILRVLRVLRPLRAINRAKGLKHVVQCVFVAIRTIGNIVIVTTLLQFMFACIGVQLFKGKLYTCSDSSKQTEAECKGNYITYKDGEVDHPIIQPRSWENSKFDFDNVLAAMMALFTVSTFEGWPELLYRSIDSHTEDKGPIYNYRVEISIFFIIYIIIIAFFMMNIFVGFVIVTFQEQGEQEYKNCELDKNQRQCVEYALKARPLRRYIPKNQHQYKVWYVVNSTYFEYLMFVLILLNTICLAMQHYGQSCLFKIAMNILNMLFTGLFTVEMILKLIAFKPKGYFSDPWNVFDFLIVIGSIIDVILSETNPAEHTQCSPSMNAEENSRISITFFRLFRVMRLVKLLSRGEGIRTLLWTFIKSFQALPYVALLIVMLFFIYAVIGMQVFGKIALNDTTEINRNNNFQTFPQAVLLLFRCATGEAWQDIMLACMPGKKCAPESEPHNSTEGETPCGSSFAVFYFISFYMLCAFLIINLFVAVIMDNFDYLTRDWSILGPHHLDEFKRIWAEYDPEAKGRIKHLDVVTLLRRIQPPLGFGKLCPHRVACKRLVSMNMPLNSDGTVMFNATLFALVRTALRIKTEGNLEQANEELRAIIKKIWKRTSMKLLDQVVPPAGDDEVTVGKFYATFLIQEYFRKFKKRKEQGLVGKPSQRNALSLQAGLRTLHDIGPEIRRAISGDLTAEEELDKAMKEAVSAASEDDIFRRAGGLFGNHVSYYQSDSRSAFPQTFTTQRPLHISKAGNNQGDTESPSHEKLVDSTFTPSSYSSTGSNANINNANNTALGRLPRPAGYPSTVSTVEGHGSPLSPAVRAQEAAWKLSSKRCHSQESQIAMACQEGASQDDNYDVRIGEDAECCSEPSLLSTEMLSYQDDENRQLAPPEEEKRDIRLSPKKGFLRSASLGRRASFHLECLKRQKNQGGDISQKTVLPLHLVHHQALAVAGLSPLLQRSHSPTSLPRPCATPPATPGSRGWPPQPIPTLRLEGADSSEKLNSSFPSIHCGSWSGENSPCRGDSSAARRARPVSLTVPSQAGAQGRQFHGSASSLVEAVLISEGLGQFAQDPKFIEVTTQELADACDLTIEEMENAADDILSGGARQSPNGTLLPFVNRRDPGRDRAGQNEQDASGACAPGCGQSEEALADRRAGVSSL
T1 sequence (P13806 27-960 partner limits assumed, other chains not shown): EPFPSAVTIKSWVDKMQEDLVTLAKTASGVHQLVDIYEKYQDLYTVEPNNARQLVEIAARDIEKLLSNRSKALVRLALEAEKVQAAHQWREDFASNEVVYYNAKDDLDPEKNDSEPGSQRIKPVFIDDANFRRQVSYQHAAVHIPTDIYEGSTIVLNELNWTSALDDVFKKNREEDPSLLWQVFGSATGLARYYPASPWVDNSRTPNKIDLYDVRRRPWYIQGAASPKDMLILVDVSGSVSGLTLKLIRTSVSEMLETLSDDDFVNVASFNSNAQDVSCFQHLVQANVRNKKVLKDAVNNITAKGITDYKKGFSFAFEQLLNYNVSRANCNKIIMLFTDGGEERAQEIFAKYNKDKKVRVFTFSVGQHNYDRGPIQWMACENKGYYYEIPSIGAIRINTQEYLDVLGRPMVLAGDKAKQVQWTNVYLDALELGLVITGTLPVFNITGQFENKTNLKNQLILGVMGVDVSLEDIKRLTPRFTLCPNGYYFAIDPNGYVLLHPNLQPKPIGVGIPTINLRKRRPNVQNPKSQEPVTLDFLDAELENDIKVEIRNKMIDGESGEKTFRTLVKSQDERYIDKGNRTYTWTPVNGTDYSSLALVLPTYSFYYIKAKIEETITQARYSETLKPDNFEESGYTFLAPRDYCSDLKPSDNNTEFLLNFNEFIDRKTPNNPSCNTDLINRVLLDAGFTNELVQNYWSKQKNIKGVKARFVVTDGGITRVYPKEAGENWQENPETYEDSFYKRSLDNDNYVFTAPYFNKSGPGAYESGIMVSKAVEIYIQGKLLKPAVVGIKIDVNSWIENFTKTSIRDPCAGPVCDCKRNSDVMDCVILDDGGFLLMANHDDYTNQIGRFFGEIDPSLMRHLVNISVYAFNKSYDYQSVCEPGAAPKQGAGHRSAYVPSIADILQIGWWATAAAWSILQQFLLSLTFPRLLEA
T1 sequence (P13806 961-1106 partner limits assumed, other chains not shown): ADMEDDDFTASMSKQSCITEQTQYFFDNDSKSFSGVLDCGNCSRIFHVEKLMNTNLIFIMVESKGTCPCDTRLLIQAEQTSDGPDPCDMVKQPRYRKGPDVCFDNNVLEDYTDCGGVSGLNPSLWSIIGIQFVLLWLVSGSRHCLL

For `CC1=C(C(=O)OCCN(C)Cc2ccccc2)C(c2ccccc2[N+](=O)[O-])C2=C(CCCCCS2(=O)=O)N1` (stereo not shown) [5 2-NO2 C6 H4 CH2 CH2 NCH3 CH2 C6 H5], the IC50 on calcium channels (second part, read-out: Inhibition Nitrendipine binding IC^50) turned out to be 110 nM.

As for `COC(=O)C1=C(C)NC2(O)CCS(=O)(=O)C2C1c1ccccc1[N+](=O)[O-]` (stereo not shown) [Methyl 2,3,3a,4,7,7a-hexahydro-3a-hydroxy-5-methyl-7-(2-nitrophenyl)-1,1-dioxo-thieno[3,2-b]pyridine-6-carboxylate], at calcium channels (Table I, @ 8.0), the “Inhibition of Nitrendipine binding (percent at stated concentration)” value is on record as 56%.

Take `CCOC(=O)C1=C(C)NC2=C(C1c1cccnc1SC)S(=O)(=O)CCCCC2` (stereo not shown) [drawing 8 CH2 CH3]: on calcium channels (first part, read-out: Inhibition of Nitrendipine binding IC50), the IC50 amounted to 108 nM. In addition, in the test with Trachea Muscle, the “Inhibition of Trachea Muscle Contraction, % Inhibition” value is 79%.
